According to patent US9809532B2, “Uses of histone acetyltransferase activators” (THE TRUSTEES OF COLUMBIA UNIVERSITY IN THE CITY OF NEW YORK, priority 2011, dated 2017):
Values joined by “and” are separate entries in the source; they are usually repeats but may differ in a detail not shown here. Identical values can stand only once. Like-named read-outs stand apart in the source and are kept apart here.

What was measured:
[1] = target: human GCN5 (Homo sapiens, UniProt Q92830); assay: GCN5 activation, in vitro assay; assay type: biochemical
[2] = Acute toxicity experiments; assay type: in vivo; settings: i.p.
[3] = test system: wild-type mice; assay: Contextual fear conditioning; assay type: in vivo; settings: for freezing 24 h after training: vs WT vehicle mice, single tone pairing with 0.35 mA foot shock
Procedure: Contextual fear conditioning was performed to assess whether compound 1 is capable of enhancing memory. This type of cognitive test is much faster than other behavioral tasks that require multiple days of training and testing (J Clin Invest, 2004. 114(11): 1624-34; herein incorporated by reference in its entirety). The conditioning chamber was in a sound-attenuating box. A clear Plexiglas window allowed the experimenter to film the mouse performance with a camera placed on a tripod and connected to the Freezeframe software (MED Ass. Inc.). To provide background white noise (72 dB), a single computer fan was installed in one of the sides of the sound-attenuating chamber. […] The floor was removable, and after each experimental subject, it was cleaned with 75% ethanol and then with water. Only one animal at a time was present in the experimentation […].
[…] The mice remained in the chamber for an additional 30 sec after the end of the last pairing, after which they were returned to their home cages. Contextual fear conditioning was assayed 24 hr after training by replacing the animals in the conditioning context for a 5 min period, during which the incidence of freezing (immobile except for respiration) was recorded. […]
Freezing behavior, defined as the absence of all movement except for that necessitated by breathing, was scored using the Freezeview software.
To evaluate contextual fear learning, freezing was measured for 5 min (consecutively) in the chamber in which the mice was trained 24 hr after training. To evaluate cued fear learning, following contextual testing, the mice were placed in a novel context (triangular cage with smooth flat floor) for 2 min (pre-CS test), after which they were exposed to the CS for 3 min (CS test), and freezing was measured. Sensory perception of the shock was determined through threshold assessment. […] Initially, a […] shock was delivered for 1 sec, and the animal behavior was evaluated for flinching, jumping, and vocalization. […]

[4] = Chronic administration, adverse effects; assay type: in vivo; settings: 45 days, i.p., daily, 20 mg/kg
[5] = target: human p300 (Homo sapiens, UniProt Q09472); assay: p300 activation, in vitro assay; assay type: biochemical
[6] = target: HDAC5FL (Homo sapiens, UniProt Q9UQL6); assay: HDAC5FL activity assay (fluorescence)
[7] = Pharmacokinetics and BBB penetration after i.p. and i.v. administration (LC-MS/MS); assay type: in vivo, BALB/c mice; settings: 20 mg/kg; for Kp: brain/plasma
Procedure: After i.p. and i.v. administration at 20 mg/kg to BALB/c mice, plasma and brain concentrations were determined by LC-MS/MS.

Sequence of human p300 (Q09472 whole entry): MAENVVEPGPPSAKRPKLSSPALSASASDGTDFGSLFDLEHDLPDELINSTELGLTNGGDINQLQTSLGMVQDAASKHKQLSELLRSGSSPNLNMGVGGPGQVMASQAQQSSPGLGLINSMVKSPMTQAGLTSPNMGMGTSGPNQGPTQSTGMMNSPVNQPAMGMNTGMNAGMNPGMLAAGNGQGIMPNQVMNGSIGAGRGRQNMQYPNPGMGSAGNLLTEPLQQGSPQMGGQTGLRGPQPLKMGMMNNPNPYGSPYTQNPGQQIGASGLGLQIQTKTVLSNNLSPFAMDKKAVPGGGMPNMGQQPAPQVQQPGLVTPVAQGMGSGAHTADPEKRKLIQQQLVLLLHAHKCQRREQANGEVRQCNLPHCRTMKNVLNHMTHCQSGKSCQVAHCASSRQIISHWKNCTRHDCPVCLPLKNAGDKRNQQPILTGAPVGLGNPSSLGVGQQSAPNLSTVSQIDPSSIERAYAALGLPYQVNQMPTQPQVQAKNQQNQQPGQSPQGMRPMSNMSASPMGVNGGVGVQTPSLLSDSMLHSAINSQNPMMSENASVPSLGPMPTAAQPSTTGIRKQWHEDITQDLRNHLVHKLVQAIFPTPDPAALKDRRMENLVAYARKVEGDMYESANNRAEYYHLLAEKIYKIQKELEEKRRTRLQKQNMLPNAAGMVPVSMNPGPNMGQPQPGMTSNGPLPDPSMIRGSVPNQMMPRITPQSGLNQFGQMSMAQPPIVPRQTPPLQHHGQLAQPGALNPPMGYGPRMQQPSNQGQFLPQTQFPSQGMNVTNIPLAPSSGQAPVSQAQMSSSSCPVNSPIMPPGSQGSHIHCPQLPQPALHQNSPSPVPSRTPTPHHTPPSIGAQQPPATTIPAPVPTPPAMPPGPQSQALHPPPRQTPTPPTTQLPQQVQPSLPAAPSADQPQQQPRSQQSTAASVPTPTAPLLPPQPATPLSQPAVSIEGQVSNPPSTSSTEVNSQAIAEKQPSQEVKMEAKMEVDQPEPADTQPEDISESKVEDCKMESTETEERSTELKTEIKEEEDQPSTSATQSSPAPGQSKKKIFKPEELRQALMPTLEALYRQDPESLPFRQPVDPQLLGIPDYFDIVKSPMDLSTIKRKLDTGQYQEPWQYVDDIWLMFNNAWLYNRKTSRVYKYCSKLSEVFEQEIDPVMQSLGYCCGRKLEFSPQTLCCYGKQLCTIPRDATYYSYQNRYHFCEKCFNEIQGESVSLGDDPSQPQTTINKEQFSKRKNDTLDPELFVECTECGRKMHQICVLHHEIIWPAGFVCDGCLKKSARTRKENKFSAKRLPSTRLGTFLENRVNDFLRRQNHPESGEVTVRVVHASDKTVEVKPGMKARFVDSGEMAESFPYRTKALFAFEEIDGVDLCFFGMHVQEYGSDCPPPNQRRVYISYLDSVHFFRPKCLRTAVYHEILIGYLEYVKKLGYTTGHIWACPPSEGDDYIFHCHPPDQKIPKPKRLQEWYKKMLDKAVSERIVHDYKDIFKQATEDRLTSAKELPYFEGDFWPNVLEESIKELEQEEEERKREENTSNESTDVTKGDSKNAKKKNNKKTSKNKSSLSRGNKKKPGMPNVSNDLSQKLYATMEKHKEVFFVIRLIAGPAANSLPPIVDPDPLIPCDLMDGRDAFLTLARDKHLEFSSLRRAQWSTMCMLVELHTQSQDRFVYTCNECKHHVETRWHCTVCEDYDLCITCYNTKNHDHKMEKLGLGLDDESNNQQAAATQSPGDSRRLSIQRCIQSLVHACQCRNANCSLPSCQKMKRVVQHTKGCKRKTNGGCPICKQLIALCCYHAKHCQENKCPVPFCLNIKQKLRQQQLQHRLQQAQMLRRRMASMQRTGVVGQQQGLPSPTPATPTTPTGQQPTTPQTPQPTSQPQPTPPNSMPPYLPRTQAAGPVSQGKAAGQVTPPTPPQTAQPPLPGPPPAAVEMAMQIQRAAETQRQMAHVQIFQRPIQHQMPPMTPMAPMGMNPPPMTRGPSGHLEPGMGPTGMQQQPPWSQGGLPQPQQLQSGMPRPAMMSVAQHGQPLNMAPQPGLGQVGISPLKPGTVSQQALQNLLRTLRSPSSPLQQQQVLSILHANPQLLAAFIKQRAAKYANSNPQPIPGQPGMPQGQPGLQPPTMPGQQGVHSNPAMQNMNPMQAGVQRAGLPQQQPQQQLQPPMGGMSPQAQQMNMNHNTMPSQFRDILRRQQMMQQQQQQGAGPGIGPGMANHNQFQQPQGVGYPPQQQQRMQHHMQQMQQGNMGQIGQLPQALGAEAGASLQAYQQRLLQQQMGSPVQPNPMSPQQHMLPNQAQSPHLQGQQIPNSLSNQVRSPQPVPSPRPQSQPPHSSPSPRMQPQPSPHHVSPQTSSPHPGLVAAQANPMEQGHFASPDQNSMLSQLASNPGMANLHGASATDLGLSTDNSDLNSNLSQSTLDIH
Sequence of human GCN5 (Q92830 whole entry): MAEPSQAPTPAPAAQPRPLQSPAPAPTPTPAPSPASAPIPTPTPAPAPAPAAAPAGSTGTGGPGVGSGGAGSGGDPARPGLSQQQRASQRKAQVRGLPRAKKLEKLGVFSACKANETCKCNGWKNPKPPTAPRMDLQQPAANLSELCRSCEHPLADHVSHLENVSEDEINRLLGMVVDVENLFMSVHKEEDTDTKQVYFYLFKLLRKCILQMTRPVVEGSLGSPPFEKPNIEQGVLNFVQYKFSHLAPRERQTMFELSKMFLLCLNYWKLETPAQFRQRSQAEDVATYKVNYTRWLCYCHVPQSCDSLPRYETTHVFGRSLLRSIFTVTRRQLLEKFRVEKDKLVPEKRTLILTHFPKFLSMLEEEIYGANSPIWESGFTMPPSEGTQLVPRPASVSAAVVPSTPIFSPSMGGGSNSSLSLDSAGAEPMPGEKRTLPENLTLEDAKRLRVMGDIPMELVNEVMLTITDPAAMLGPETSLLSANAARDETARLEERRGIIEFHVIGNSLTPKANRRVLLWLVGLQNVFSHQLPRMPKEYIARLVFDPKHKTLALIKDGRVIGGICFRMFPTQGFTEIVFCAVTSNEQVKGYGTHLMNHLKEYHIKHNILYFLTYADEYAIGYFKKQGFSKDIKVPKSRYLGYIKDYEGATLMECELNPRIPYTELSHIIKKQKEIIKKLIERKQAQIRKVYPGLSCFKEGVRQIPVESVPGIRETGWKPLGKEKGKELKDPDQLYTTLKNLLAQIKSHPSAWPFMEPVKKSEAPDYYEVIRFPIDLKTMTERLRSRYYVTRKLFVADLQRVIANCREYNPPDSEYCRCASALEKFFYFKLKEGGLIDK
Sequence of HDAC5FL (Q9UQL6 whole entry): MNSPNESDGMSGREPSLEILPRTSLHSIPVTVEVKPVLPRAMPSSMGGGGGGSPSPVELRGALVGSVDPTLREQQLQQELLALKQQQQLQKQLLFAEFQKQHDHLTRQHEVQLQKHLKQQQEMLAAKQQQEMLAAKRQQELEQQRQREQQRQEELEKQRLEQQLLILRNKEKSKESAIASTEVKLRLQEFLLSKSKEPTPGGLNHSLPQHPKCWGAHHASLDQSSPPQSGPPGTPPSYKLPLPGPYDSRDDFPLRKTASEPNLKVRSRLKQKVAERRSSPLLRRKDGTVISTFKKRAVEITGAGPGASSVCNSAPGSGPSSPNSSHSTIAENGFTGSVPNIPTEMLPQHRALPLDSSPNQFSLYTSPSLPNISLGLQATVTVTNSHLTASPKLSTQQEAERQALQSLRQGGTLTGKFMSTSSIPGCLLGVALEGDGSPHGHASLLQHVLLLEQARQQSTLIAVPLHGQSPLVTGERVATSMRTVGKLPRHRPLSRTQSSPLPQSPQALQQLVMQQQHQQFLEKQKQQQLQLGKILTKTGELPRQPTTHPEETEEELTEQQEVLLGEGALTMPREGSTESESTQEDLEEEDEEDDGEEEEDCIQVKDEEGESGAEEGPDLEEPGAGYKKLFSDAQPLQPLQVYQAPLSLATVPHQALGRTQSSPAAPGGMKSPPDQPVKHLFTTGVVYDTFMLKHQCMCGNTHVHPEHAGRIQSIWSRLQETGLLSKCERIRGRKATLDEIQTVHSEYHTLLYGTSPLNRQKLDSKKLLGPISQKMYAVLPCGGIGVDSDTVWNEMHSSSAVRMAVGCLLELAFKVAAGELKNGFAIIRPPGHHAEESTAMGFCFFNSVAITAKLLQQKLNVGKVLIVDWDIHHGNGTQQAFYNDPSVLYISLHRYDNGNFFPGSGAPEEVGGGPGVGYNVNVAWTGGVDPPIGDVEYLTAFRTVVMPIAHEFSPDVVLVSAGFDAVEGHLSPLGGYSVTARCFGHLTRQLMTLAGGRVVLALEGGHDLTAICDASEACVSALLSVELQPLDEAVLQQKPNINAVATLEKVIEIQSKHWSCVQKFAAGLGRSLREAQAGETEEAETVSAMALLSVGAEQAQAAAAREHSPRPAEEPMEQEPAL

With CCOc1cccc(OCCN(C)C)c1C(=O)Nc1ccc(Cl)c(C(F)(F)F)c1 [Compound 1] the EC50 [1] was 49.3 µM and 65.2 µM, the “dose without any adverse effects, acute toxicity” value [2] was “up to 300 mg/kg” and the “freezing 24 h after training” value ([3]; 5 mg/kg) was “froze nearly twice as often”. For the same molecule, the “freezing 24 h after training” value ([3]; 20 mg/kg) was “froze nearly twice as often”, the memory effect ([3]; weaker training protocol) was “worked as a memory enhancer” and the “adverse effects on chronic administration” value [4] was “did not have adverse effects”. The “effect on p300 activity” value [5] was “increases p300 activity”, the EC50 ([5]; FIG. 16) was 0.79 µM and the “effect on p300 activity” value ([5]; listed as compound 1) was “did not interfere with p300”. The IC50 [6] was greater than 200 µM, the “% Activity (HDAC5FL)” value ([6]; Compound 1 Log [nM] 3.0, Repeat1/Repeat2) was 99.80% and the Kp ([7]; BALB/c, mouse, ip, IP, read-out: AUC0-t ratio brain/plasma) was 8.2. For the same molecule, the Kp ([7]; BALB/c, mouse, ip, IP, read-out: AUC0-∞ ratio brain/plasma) was 8.1, the Kp ([7]; BALB/c, mouse, ip, IP, read-out: Cmax ratio brain/plasma) was 5.8 and the Kp ([7]; BALB/c, mouse, iv, IV, read-out: AUC0-t ratio brain/plasma) was 10.8. The Kp ([7]; BALB/c, mouse, iv, IV, read-out: AUC0-∞ ratio brain/plasma) was 11.2, the Kp ([7]; BALB/c, mouse, iv, IV, read-out: Cmax ratio brain/plasma) was 13.1 and the Tmax ([7]; BALB/c, mouse, intraperitoneal, brain, read-out: Tmax in the brain (converted)) was 15 min. For the same molecule, the half-life ([7]; BALB/c, mouse, ip, i.p., brain and plasma, read-out: elimination half-lives in the brain and plasma) was roughly 40 min, the Cmax ([7]; BALB/c, mouse, IP, brain) was 4880 ng/g and the MRT ([7]; BALB/c, mouse, IP, brain) was 61.8 min. For the same molecule, the Tmax ([7]; BALB/c, mouse, IP, brain, read-out: Tmax) was 15 min, the half-life ([7]; BALB/c, mouse, IP, brain, read-out: t½ (converted)) was 37.8 min and the AUC(0-inf) ([7]; BALB/c, mouse, IP, plasma) was 813 ng·h/mL. It also gave a Cmax ([7]; BALB/c, mouse, IP, plasma) of 843 ng/mL, an MRT ([7]; BALB/c, mouse, IP, plasma) of 51 min and an AUC0-t ([7]; BALB/c, mouse, IP, plasma, read-out: AUC0-t) of 806 ng·h/mL. The Tmax ([7]; BALB/c, mouse, IP, plasma, read-out: Tmax) was 15 min, the half-life ([7]; BALB/c, mouse, IP, plasma, read-out: t½ (converted)) was 36 min and the Cmax ([7]; BALB/c, mouse, IV, brain) was 27900 ng/g. It also gave an MRT ([7]; BALB/c, mouse, IV, brain) of 44.4 min, a Tmax ([7]; BALB/c, mouse, IV, brain, read-out: Tmax) of 7.5 min and a half-life ([7]; BALB/c, mouse, IV, brain, read-out: t½ (converted)) of 37.8 min. For the same molecule, the AUC(0-inf) ([7]; BALB/c, mouse, IV, plasma) was 2020 ng·h/mL, the Cmax ([7]; BALB/c, mouse, IV, plasma) was 2130 ng/mL and the MRT ([7]; BALB/c, mouse, IV, plasma) was 50.4 min. The AUC0-t ([7]; BALB/c, mouse, IV, plasma, read-out: AUC0-t) was 1970 ng·h/mL, the Tmax ([7]; BALB/c, mouse, IV, plasma, read-out: Tmax) was 7.5 min and the half-life ([7]; BALB/c, mouse, IV, plasma, read-out: t½ (converted)) was 42 min. For the same molecule, the AUC0-t ([7]; IP, brain) was 6493 ng·h/g, the “AUC0-∞” value ([7]; IP, brain) was 6564 ng·h/g and the F ([7]; IP, brain) was 29.2%. The F ([7]; IP, plasma) was 41.0%, the AUC0-t ([7]; IV, brain) was 22222 ng·h/g and the “AUC0-∞” value ([7]; IV, brain) was 22581 ng·h/g. For the same molecule, the “amount in the brain compared with plasma” value ([7]; i.p. and i.v.) was “higher than that in the plasma”.
